Data on 11 compounds can be found in US4517002A (priority 1983, dated 1985).

The structures appear in SMILES notation.

Experiment [1] concerns urease. The experiment is classed as biochemical. The following applies: pH 7.2.
The test system of experiment [2] is urease. The experiment is classed as biochemical. The following applies: pH 5.4.

`CCCOP(N)(N)=O` [Experiment 10]: the “% Inhibition Cazenovia Soil” value in the experiment on urease [1] amounted to 15%. On the same count and under the same terms, next, `COP(N)(N)=O` [Experiment 9]: 34%. Turning to `NP(N)(=O)OCCCCl` [Experiment 8], the “% Inhibition Cazenovia Soil” value with urease [1] is given as 41%. The “% Inhibition Wisconsin Soil” value in the experiment with urease [2] came out at 22%. `NP(N)(=O)OCCCl` [Experiment 4]: the “% Inhibition Cazenovia Soil” value in the experiment on urease [1] worked out at 84%. In the case of `NP(N)(=O)OCCBr` [Experiment 3], the “% Inhibition Cazenovia Soil” value in the experiment on urease [1] was 85%. `C=CCOP(N)(N)=O` [Experiment 6]: the “% Inhibition Cazenovia Soil” value in the experiment on urease [1] is 65%. For the same compound, the “% Inhibition Wisconsin Soil” value in the experiment on urease [2] is 38%.

On to `NP(N)(=O)OC1C(Cl)(Cl)CCCC1(Cl)Cl` [Experiment 12], for which the “% Inhibition Cazenovia Soil” value with urease [1] was 38%. For `NP(N)(=O)OCC(F)(F)F` [Experiment 1], the “% Inhibition Cazenovia Soil” value in the experiment with urease [1] turned out to be 97%. Moreover, the “% Inhibition Wisconsin Soil” value in the experiment with urease [2] came to 90%. For `NP(N)(=O)OC1CCCCC1` [Experiment 11], the “% Inhibition Cazenovia Soil” value in the experiment on urease [1] is reported as 85%. For the compound `NP(N)(=O)OCc1ccccc1` [Experiment 7], the “% Inhibition Cazenovia Soil” value in the experiment on urease [1] stood at 69%. Also, the “% Inhibition Wisconsin Soil” value in the experiment with urease [2] is 20%. In the same order, the values of `NP(N)(=O)OCC(Cl)(Cl)Cl` [Experiment 2] are 97% and 87%.
